Test in all cases: NCI anticancer screen, dose series, 48 h
Test [1] has as its system BT-549 breast.
The test system of test [2] is HOP-92 NSCLC.
In test [3] the test system is KM12 colon.
In test [4] the test system is MDA-MB-231 breast.
Test [5] has as its system NCI-H23 lung.
Test [6] concerns RXF 393 renal.
Test [7] deals with SF-268 CNS.
Test [8] deals with SF-295 CNS.
In test [9] the test system is SN12C renal.
In test [10] the test system is U251 CNS.

Where “and” joins values, the source holds several entries; their conditions need not be identical. Equal values may be shown once.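 In this assay, cells in 96-well plates receive the compound at five concentrations for 48 hours. Endpoints are linearly interpolated between the surrounding concentrations. Abbreviation: GI50, concentration required for 50% inhibition of growth. TGI is the concentration that stops growth completely.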 Some results are limits rather than exact numbers.

In the case of `CC/C(=C\c1ccc(N(C)C)cc1)c1ccncc1`, the GI50 is 4.38 µM in [1]; 1.89 µM in test [2]; 3.84 µM in test [3]; 6.53 µM in test [4]; 4.96 µM in [5]; 4.25 µM in [6]. In addition, the GI50 in test [7] was 11.2 µM; in test [8], 3.44 µM; in test [9], 5.96 µM; in test [10], 4.82 µM. Further, the TGI in test [1] is 23.5 µM; in [2], 9.94 µM; in test [3] it was > 100 µM; in test [4], 80.1 µM; in test [5] it was > 100 µM; in test [6], 20.8 µM. In addition, the TGI in test [7] is > 100 µM; in test [8] it was 21.1 µM; in [9], > 100 µM; in test [10], 48.7 µM.

With `Nc1nc(-c2ccccn2)c(-c2ccc3ncccc3n2)s1`, the GI50 was > 25 µM in test [1]; 13.3 µM in test [2]; > 25 µM in [3]; > 25 µM in test [4]; > 25 µM in test [5]; > 25 µM in [6]. Besides, the GI50 in [7], in [8], in [9] and in test [10] was > 25 µM each time. In addition, the TGI in [1], in test [2], in test [3], in test [4], in test [5] and in test [6] was > 25 µM throughout. In addition, the TGI in test [7], in test [8], in test [9] and in test [10] was > 25 µM each time.

On to `CC(C)c1c(C(=O)Nc2ccccc2)c(-c2ccccc2)c(-c2ccc(F)cc2)n1CC[C@@H](O)C[C@@H](O)CC(=O)O`, for which the GI50 in test [1] is 15.6 µM; in [2] it was 0.211 µM; in [3], 40.2 µM; in [4], 1.61 µM; in test [5], 31 µM; in [6], 8.75 µM. The GI50 in test [7] is 6.64 µM; in [8], 6.74 µM; in test [9], 7.56 µM; in test [10] it was 4.48 µM. Moreover, the TGI in test [1] was 41.7 µM; in [2], 2.14 µM; in test [3], > 100 µM; in [4] it was 6.63 µM; in test [5], > 100 µM; in test [6] it was 47.2 µM. Besides, the TGI is > 100 µM in test [7], > 60.6 µM in test [8], > 100 µM in test [9] and > 100 µM in test [10].

On to `N#CSc1c[nH]c2cccc(/C=C/C(=O)/C=C(O)/C=C/c3cccc4[nH]cc(SC#N)c34)c12`, for which the GI50 in test [1] was 0.5 µM; in test [2], 0.51 µM; in test [3] it was 0.351 µM; in test [4], 0.553 µM; in test [5] it was 0.426 µM; in test [6] it was 0.326 µM. The GI50 in [7] was 0.528 µM; in [8], 0.746 µM; in test [9] it was 0.364 µM; in test [10] it was 0.185 µM. Also, the TGI in test [1] came out at 1.63 µM; in test [2], 1.27 µM; in test [3] it was 0.998 µM; in [4], 1.21 µM; in test [5], 1.89 µM; in [6], 1 µM. The TGI in [7] was determined as 1.86 µM; in test [8], 2.29 µM; in test [9], 1.57 µM; in test [10] it was 1.14 µM.

`C=C(CN1CCc2ccccc2C1)c1ccc(C(=O)Nc2cccc(N)c2)cc1`: the GI50 in [1] is 16.2 µM; in test [2] it was 63.9 µM; in test [3], 16.5 µM; in [4], 18.1 µM; in [5], 19.8 µM; in test [6], 19.1 µM. For the same compound, the GI50 in test [7] is 19 µM; in test [8] it was 20 µM; in test [9], 18.8 µM; in test [10] it was 22.3 µM. In addition, the TGI in [1] is 34.4 µM; in [2], > 100 µM; in test [3], 33.7 µM; in test [4] it was 44.8 µM; in test [5], 62.3 µM; in [6] it was 43.7 µM. Besides, the TGI in test [7] amounted to 45.9 µM; in test [8], 51.2 µM; in test [9], 36.5 µM; in test [10], 57.4 µM.

Take `OC1(c2ccccc2)c2ccccc2N(c2ccccc2)c2ccc(Cl)cc21` (centres undefined): the GI50 in [1] is 0.367 µM; in [2], 0.214 µM; in [3], 0.296 µM; in [4], 0.231 µM; in test [5] it was 0.32 µM; in test [6], 0.185 µM. Further, the GI50 in [7] is 0.311 µM; in test [8], 0.575 µM; in test [9], 0.224 µM; in test [10], 0.201 µM. Also, the TGI amounted to 1.29 µM in [1]; 0.703 µM in [2]; 0.845 µM in test [3]; 0.626 µM in [4]; 1.38 µM in [5]; 0.472 µM in test [6]. Also, the TGI in test [7] came out at 1.14 µM; in [8], 2.27 µM; in [9] it was 0.712 µM; in [10] it was 0.536 µM.

With `C=CN(C(=O)N1CCN(c2cc3c(cc2F)c(=O)c(C(=O)O)cn3C2CC2)CC1)c1nc(-c2ccc(C)cc2)cs1`, the GI50 in test [1] was 0.306 µM; in test [2] it was 1.13 µM; in test [3] it was 3.45 µM; in [4] it was 2.99 µM; in test [5], 3.12 µM; in [6] it was 4 µM. The GI50 in [7] was 4.02 µM; in test [8] it was 2.59 µM; in [9], 3.46 µM; in test [10], 3.39 µM. Moreover, the TGI is 2.11 µM in test [1]; 4.39 µM in test [2]; > 100 µM in test [3]; > 100 µM in [4]; 16.1 µM in test [5]; > 100 µM in test [6]. For the same compound, the TGI was > 100 µM in [7], 7.11 µM in [8], > 100 µM in test [9] and 11.6 µM in test [10].

With `FC(F)(F)c1ccc(-c2cnc(-c3nn[nH]n3)nc2NC2CCCCCC2)cc1`, the GI50 in test [1], in [2], in [3], in test [4], in test [5] and in test [6] was > 10 µM each time. The GI50 in test [7], in test [8], in test [9] and in [10] was > 10 µM each time. The TGI in [1], in test [2], in test [3], in test [4], in test [5] and in test [6] was > 10 µM throughout. Besides, the TGI in test [7], in test [8], in test [9] and in test [10] was > 10 µM each time.

In the case of `c1c[nH]c(CN2CCN(Cc3ncc[nH]3)CC2)n1`, the TGI in test [1], in [2], in test [3], in test [4], in test [5] and in test [6] was > 100 µM each time. Besides, the TGI in [7], in test [8], in test [9] and in [10] was > 100 µM in each case.

Take `CNC(=S)N/N=C/CSC/C=N/NC(=S)NC`: the GI50 in [1], in test [2], in [3], in test [4], in [5] and in test [6] was > 100 µM in each case. In addition, the GI50 in [7], in [8], in test [9] and in test [10] was > 100 µM throughout. For the same compound, the TGI in [1], in test [2], in test [3], in test [4], in test [5] and in [6] was > 100 µM each time. Besides, the TGI in test [7], in test [8], in [9] and in [10] was > 100 µM throughout.

In the case of `COc1ncc(-c2ccc3nc(N)n(-c4ccccc4C(F)(F)F)c(=O)c3c2)cc1S(=O)(=O)Nc1ccc(F)cc1F`, the GI50 in test [1] is 1.57 µM; in [2], 0.432 µM; in test [3], 1.06 µM; in [4] it was 0.217 µM; in test [5], 0.693 µM; in [6], 0.099 µM. Also, the GI50 in [7] was 2.43 µM; in test [8], 1.41 µM; in test [9], 4.52 µM; in test [10], 0.953 µM. Moreover, the TGI was 6.7 µM in test [1]; 94.5 µM in test [2]; 12.2 µM in test [3]; 0.755 µM in test [4]; 38.1 µM in test [5]; 4.46 µM in test [6]. The TGI in test [7] is > 100 µM; in test [8] it was 17.5 µM; in test [9], > 100 µM; in test [10], 15.3 µM.

Regarding `CC1(C)CCC(c2ccc(Cl)cc2)=C(CN2CCN(c3ccc(C(=O)NS(=O)(=O)c4ccc(N[C@H](CCN5CCOCC5)CSc5ccccc5)c(S(=O)(=O)C(F)(F)F)c4)cc3)CC2)C1`, the GI50 in [1] was 1.96 µM; in [2], 0.0455 µM; in test [3] it was 1.72 µM; in test [4] it was 0.642 µM; in test [5], 1.74 µM; in test [6], 0.322 µM. The GI50 was 2.31 µM in [7], 1.52 µM in test [8], 1.53 µM in [9] and 1.9 µM in [10]. Besides, the TGI in [1] was 3.6 µM; in test [2] it was 0.245 µM; in test [3] it was 3.42 µM; in [4], 2.17 µM; in test [5], 3.96 µM; in [6], 1.94 µM. The TGI in [7] amounted to 5.55 µM; in [8], 3.2 µM; in [9] it was 3.33 µM; in test [10], 3.43 µM.

`CCn1nc(C#Cc2c(C)ccc3c(Nc4ccc(Cl)cc4)nccc23)c2c(N)ncnc21`: the GI50 was 5.27 µM in test [1]; 1.79 µM in [2]; 3.79 µM in [3]; 1.89 µM in test [4]; 3.58 µM in test [5]; 2.63 µM in test [6]. Moreover, the GI50 is 5.36 µM in [7], 2.48 µM in [8], 3.84 µM in test [9] and 4.43 µM in test [10]. The TGI in [1] is > 100 µM; in test [2], 9.06 µM; in test [3], > 100 µM; in test [4] it was 27.8 µM; in test [5], > 100 µM; in test [6], 8.98 µM. Moreover, the TGI was > 100 µM in test [7], 11.6 µM in [8], > 100 µM in test [9] and > 100 µM in test [10].

`CCN(CC)CCCC(C)Nc1ccnc2cc(OC)ccc12` (centres undefined): the GI50 in [1] is 18.7 µM; in test [2] it was 9.25 µM; in test [3], 26.4 µM; in test [4] it was 22.5 µM; in test [5], 31.6 µM; in test [6], 15.7 µM. Also, the GI50 in test [7] is > 100 µM; in test [8], 34.3 µM; in test [9], 29.7 µM; in test [10] it was 42 µM. For the same compound, the TGI in test [1] was 37 µM; in test [2], 26.7 µM; in test [3], > 100 µM; in [4] it was 54.3 µM; in [5], 96.3 µM; in test [6], 35.5 µM. Moreover, the TGI in [7] was > 100 µM; in test [8], > 100 µM; in test [9], 75.1 µM; in test [10], > 100 µM.

Take `Nc1nc(N)c2nc(CNc3ccc(C(=O)NC(CCC(=O)O)C(=O)O)cc3)cnc2n1` (centres undefined): the GI50 in [1] was 0.399 µM and 0.213 µM; in [2], > 100 µM; in test [3], < 0.01 µM; in test [4] it was > 23.1 µM and 6.99 µM; in test [5], 0.0604 µM and 0.0213 µM; in test [7], 0.02 µM and < 0.01 µM. The GI50 in [8] was 0.0327 µM and < 0.0134 µM; in [9], < 0.01 µM; in test [10], 0.0468 µM and < 0.0107 µM. Moreover, the TGI in [1], in [2], in [3], in test [4], in test [5] and in [6] was > 100 µM throughout. The TGI in [7], in test [8], in test [9] and in test [10] was > 100 µM throughout.

The values above are taken from PubChem BioAssay (NCI).
